Values quoted from earlier work, collected in patent EP1399019B1, “ADJUVANT COMPOSITIONS AND PESTICIDES” (HUNTSMAN PETROCHEMICAL CORPORATION, priority 2001, dated 2002).
Like-named read-outs stand apart in the source and are kept apart here.

CNC(=O)CSP(=S)(OC)OC [Cygon, dimethoate]
time to lose 50 percent of its pest control power (mixed in water of pH 9): 48 min | time to lose 50 percent of its pest control power (pH of 6): 720 min
